Our source for the inhibition values is paper PMC6934184, “Selective DNA-PKcs inhibition extends the therapeutic index of localized radiotherapy and chemotherapy” (The Journal of Clinical Investigation, 2019).

The target in this test is T1, ACVRL1 (ALK1) (Homo sapiens, UniProt P37023).
T1 construct: purchased Thermo Fisher Scientific (Life Technologies) SelectScreen
The experiment in a line: SelectScreen LanthaScreen. It is filed as binding. To be noted: read-out: % displacement. Summed up:
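Percent values come from Thermo SelectScreen profiling of NU5455, combining activity and binding assays. CSF1R was run in Z'LYTE format at Km app ATP, and CAMK1 in Adapta format with ATP listed at 10.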

T1 sequence (P37023 22-503): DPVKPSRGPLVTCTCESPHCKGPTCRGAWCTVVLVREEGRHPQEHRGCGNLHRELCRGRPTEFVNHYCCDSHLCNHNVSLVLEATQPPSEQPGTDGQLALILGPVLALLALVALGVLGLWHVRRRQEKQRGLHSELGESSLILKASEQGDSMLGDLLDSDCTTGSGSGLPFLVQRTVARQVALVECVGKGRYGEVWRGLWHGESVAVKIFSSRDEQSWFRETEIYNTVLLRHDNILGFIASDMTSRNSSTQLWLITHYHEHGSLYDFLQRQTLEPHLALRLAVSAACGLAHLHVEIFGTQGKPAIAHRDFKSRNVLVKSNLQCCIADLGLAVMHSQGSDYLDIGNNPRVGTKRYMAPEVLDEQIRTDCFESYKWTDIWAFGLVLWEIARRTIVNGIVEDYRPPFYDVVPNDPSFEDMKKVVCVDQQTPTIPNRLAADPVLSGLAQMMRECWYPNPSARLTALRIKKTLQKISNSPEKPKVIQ

As for `CN(C(=O)CN1CCOCC1)c1ccc2sc3c(-c4cccc5c(=O)cc(N6CC7CCC(C6)O7)oc45)cccc3c2c1` [NU5455], the inhibition at 1 µM was 2.3%.
